The values below come from patent US20180036302A1, “TREATMENT OF MULTIPLE SCLEROSIS WITH COMBINATION OF LAQUINIMOD AND A STATIN” (Teva Pharmaceutical Industries Ltd., priority 2014, published 2018).

For data set [1] the following is noted: in vivo; cited from earlier work.
Another data set has as its system Multiple Sclerosis. To be noted: two phase III trials; cited from earlier work.
A further data set can be described thus: in vivo. To be noted: male, C57BL/6, mouse, po, 5 mg/kg. Here is the method:
For all PO administration groups: 1% MC in water (all PO formulations were made just prior to use).
Fasted overnight and fed 4 hr post dose, free access to water
• 1. For plasma samples: An aliquot of 30 μL plasma sample was added with 150 μL ACN which contains IS (Dexamethasane 40 ng/mL, 5 ng/mL) for protein precipitation. The mixture was vortexed for 2 rain and centrifuged at 12000 rpm for 5 min. The 2 μL supernatant was injected into LC-MS/MS. • 2. For diluted plasma samples: An aliquot of 10 μL plasma sample was added with 90 μL blank plasma to obtain the diluted plasma samples, and the sample dilution factor is 10. An aliquot of 10 μL 10-folder-diluted plasma sample was added with 40 μL blank plasma to obtain the diluted plasma samples, and the sample dilution factor is 50. The exaction procedure for diluted samples was same as those for non-diluted samples.
The animals were restrained manually at the designated time points. Approx. 150 μL of blood samples were taken from the animals into K2EDTA tubes via retro-orbital puncture or cardiac puncture for terminal bleeding under anesthesia with Isoflurane. Blood sample was put on ice and centrifuged at 2000 g for 5 min (4° C.) to obtain plasma sample within 15 minutes. Plasma samples were snap frozen by placing into dry-ice.
The plasma samples were stored at approximately −70° C. until analysis. The backup samples are discarded after two months unless specified. The unused dosing solutions are discarded within 1 week after completion of the study.

Data set [2] deals with MOG induced chronic Experimental Autoimmune Encephalomyelitis (EAE) model. Kind of data set: MOG induced chronic EAE in C57Bl/6 mice. Type of data set: in vivo. As to conditions: for % inhibition 1 (incidence) / % inhibition 2 (MMS) / % inhibition 3 (GMS): vs vehicle.
Where [3] appears, read: Laquinimod 5 mg/kg/day gavage, Day 1-30.
[4] abbreviates: Laquinimod 25 mg/kg/day gavage, Day 1-30.
Where [5] appears, read: Atorvastatin 10 mg/kg BID gavage, Day 1-30.
Where [6] appears, read: Atorvastatin 50 mg/kg BID gavage, Day 1-30.

SMILES strings stand for the structures.

`CCN(C(=O)c1c(O)c2c(Cl)cccc2n(C)c1=O)c1ccccc1` [Laquinimod]: in data set [1], the oral bioavailability result is given as “high oral bioavailability”. In addition, in the data set with Multiple Sclerosis, the “safety and tolerability profile” value was “favorable safety and tolerability profile”. Further, in “in vivo”, the AUCINF came to 71465 ng·h/mL and the AUClast is 71302 ng·h/mL. Besides, the area under the curve AUC(0-inf) (commonly the area under the concentration-time curve extrapolated to infinity) in the data set “in vivo” (AUCINF) is 86900 ng·h/mL. In addition, in “in vivo” (AUClast), the AUC(0-t) (in general, the area under the concentration-time curve up to a stated or last time point) amounted to 86700 ng·h/mL. Besides, the peak level in “in vivo” (Cmax) (Cmax) was 31100 ng/mL. The half-life (usually how long it takes for the measured level to halve) in “in vivo” (Terminal t1/2) was 3.01 h. In addition, the Tmax – broadly, the time at which the peak concentration occurs – in “in vivo” (Tmax) is 0.5 h. Besides, in data set [2] (setting [3]), the “Duration” value came out at 13.5 ± 7.9 days, the GMS value is on record as 1.4 ± 1.0, the Incidence is listed as 12/15 and the MMS value is 2.3 ± 1.3. In data set [2] (setting [3]), the Mortality is listed as 0/15, the “Onset” value is recorded as 16.3 ± 7.7 days, the “% inhibition 1 (incidence)” value came out at 20% and the “% inhibition 2 (MMS)” value was 37.8%. The “% inhibition 3 (GMS)” value in data set [2] (setting [3]) came out at 48.1%. Besides, in data set [2] (setting [4]), the “Duration” value was found to be 4.1 ± 6.0 days, the GMS value is 0.3 ± 0.6, the Incidence is 5/15 and the MMS value turned out to be 0.7 ± 1.0. Also, in data set [2] (setting [4]), the Mortality is reported as 0/15, the “Onset” value was determined as 25.63 ± 7.5 days, the “% inhibition 1 (incidence)” value was 66.7% and the “% inhibition 2 (MMS)” value turned out to be 81.1%. In addition, in data set [2] (setting [4]), the “% inhibition 3 (GMS)” value came to 91.9%.
For the compound `CC(C)c1c(C(=O)Nc2ccccc2)c(-c2ccccc2)c(-c2ccc(F)cc2)n1CC[C@@H](O)C[C@@H](O)CC(=O)O` [Atorvastatin, atorvastatin], in data set [2] (setting [5]), the “Duration” value was determined as 18.1 ± 2.1 days, the GMS value worked out at 2.5 ± 0.6, the Incidence is listed as 15/15 and the MMS value stood at 3.6 ± 0.5. In data set [2] (setting [5]), the “Onset” value is 12.4 ± 1.2 days, the “% inhibition 1 (incidence)” value amounted to 0%, the “% inhibition 2 (MMS)” value is reported as 2.7% and the “% inhibition 3 (GMS)” value worked out at 7.4%. Besides, in data set [2] (setting [6]), the “Duration” value worked out at 17.2 ± 4.9 days, the GMS value was 2.3 ± 0.7, the Incidence is on record as 14/15 and the MMS value is 3.3 ± 1.0. Also, in data set [2] (setting [6]), the “Onset” value is reported as 13.8 ± 4.9 days, the “% inhibition 1 (incidence)” value is listed as 6.7%, the “% inhibition 2 (MMS)” value is 10.8% and the “% inhibition 3 (GMS)” value is listed as 14.8%. Moreover, the Mortality in data set [2] (mouse, in vivo) was 0/15.
